pKi: −log10 of the molar value.
What was measured:
[1] = biological target: T1, human D2S receptor (Homo sapiens, UniProt P14416); test: [3H]-spiperone competition binding assay, D2
T1 construct: expressed in transfected cells; host or cells: CHO
Experimental: CHO cells stably expressing human dopamine D2short (D2R) and D3 receptor (D3R) were washed and harvested using PBS. […] The cell membrane homogenate was centrifuged (20 000 × g, 20 min, 4 °C), and the resulting cell pellet was resuspended in the binding buffer. Crude membrane extracts were kept at −80 °C until use. Before starting the experiments, cell membranes were thawed, homogenized by sonication (3 × 10 s), and stored in an ice‐cold binding buffer. […] Assays were performed at least in triplicate with appropriate concentrations ranging from 0.01 nM to 100 µM of the test compound. Non‐specific binding was determined using 10 µM haloperidol. By filtering through GF/B filters pretreated with 0.3% (m/v) polyethyleneimine, the bound radioligand was separated from free radioligand using a cell harvester. Radioactivity was measured using liquid scintillation counting. Data were evaluated using the GraphPad Prism 9 software (San Diego, CA, USA) with a nonlinear regression fit.

[2] = biological target: T2, human Slack (Homo sapiens, UniProt Q5JUK3); test: Whole-cell patch-clamp recordings in HEK-Slack cells; format: cell-based; conditions: 25 µM
T2 construct: host or cells: HEK293
T2 sequence (Q5JUK3 1-1230): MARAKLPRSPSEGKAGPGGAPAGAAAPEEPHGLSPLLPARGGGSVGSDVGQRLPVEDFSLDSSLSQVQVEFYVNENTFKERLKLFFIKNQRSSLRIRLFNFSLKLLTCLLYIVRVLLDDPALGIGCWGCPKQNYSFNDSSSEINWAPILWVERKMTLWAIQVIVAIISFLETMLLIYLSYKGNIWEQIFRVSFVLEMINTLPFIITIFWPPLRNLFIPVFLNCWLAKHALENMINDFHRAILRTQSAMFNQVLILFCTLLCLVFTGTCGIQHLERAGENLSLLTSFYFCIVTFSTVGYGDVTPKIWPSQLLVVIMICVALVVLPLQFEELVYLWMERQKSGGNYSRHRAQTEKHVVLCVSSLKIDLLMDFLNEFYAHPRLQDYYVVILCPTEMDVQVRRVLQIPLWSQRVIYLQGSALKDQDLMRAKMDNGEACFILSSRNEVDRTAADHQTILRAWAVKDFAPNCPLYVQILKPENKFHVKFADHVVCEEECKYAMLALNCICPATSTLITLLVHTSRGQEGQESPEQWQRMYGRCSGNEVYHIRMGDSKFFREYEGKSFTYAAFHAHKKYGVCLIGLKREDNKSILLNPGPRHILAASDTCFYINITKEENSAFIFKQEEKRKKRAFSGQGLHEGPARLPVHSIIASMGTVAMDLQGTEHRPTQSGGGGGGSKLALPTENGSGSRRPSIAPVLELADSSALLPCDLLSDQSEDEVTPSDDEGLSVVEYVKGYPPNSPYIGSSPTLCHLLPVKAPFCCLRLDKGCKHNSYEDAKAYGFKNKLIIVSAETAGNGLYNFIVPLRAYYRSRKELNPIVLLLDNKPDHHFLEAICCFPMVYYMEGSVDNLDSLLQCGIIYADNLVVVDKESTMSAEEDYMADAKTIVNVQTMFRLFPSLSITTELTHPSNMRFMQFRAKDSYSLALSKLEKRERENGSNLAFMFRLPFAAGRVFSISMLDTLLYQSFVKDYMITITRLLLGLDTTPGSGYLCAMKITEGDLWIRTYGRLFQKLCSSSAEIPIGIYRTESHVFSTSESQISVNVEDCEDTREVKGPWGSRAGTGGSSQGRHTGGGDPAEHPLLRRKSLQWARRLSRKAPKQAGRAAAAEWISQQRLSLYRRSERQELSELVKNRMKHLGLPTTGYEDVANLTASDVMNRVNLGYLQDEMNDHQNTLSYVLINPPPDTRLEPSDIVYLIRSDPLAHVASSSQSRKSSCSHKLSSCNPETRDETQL
Experimental: Next, we verified Slack activation by the new compounds using whole‐cell patch‐clamp recordings in HEK‐Slack cells. […] At a holding potential of −70 mV, a series of 500 ms‐long test pulses ranging from −120 to +120 mV in intervals of 20 mV were applied.^[ [16] ^]
HEK‐Slack cells were plated onto poly‐D‐lysine‐coated (100 µg mL^−1, Sigma–Aldrich) coverslips 1 day before experiments and cultured in DMEM containing 10% FBS and 1% penicillin/streptomycin in 5% CO2 at 37 °C. Whole‐cell voltage‐clamp recordings were acquired using an EPC 9 amplifier combined with Patchmaster software (HEKA Electronics, Lambrecht/Pfalz, Germany). Currents were sampled at 20 kHz and filtered at 5 kHz. Data analysis was performed using the Fitmaster software (HEKA Electronics). Membrane potential was held at −70 mV and outward K^+ current (IK) was evoked by depolarizing steps (500 ms duration) ranging from −120 to +120 mV in increments of 20 mV. The pipette solution contained 140 mM KCl, 2 mM MgCl2, 5 mM EGTA, and 10 mM HEPES and was adjusted to pH 7.4 with KOH. The extracellular solution contained 140 mM NaCl, 5 mM KCl, 2 mM CaCl2, 2 mM MgCl2, and 10 mM HEPES and was adjusted to pH 7.4 with NaOH. […] The fold‐increase values in the patch‐clamp experiments were determined by calculating […]. […]

[3] = test system: mice; test: MC903 model of persistent itch; format: in vivo, mouse; conditions: i.p. at day 8, vs vehicle
Experimental: We next assessed the efficacy of compound 6 in the treatment of chronic itching. […] These findings are important because they indicate that Slack activators can reduce existing itching.
Chronic itching was induced using the MC903 model.^[ [48] ^] The fur on the dorsolateral aspect of the neck was shaved under brief isoflurane anesthesia. Five days later, 20 µL MC903 (0.2 mM; Calcipotriol, Tocris) solved in absolute ethanol was applied to the skin at the back of the neck under brief anesthesia for 7 consecutive days. On day 8, the mice were habituated for 30 min in a plexiglass cylinder (30 cm in diameter). Compound 6 hydrochloride or vehicle was administered i.p., and 15 min later, spontaneous scratching was recorded over 30 min by videotaping.

T1 sequence (P14416 1-414 isoform P14416-2): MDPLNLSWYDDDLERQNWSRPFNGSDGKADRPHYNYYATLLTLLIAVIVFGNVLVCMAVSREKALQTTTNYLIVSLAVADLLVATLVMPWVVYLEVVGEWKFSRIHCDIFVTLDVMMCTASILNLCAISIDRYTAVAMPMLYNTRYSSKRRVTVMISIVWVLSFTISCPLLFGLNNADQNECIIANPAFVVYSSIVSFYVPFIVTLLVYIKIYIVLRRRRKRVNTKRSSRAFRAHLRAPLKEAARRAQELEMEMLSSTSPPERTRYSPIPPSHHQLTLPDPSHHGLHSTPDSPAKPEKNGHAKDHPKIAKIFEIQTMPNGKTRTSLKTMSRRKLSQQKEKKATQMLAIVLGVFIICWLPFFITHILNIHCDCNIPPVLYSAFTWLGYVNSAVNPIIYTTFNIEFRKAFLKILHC

O=C(O)COCCN1CCN(C2=Nc3ccccc3Oc3ccc(Cl)cc32)CC1 [Compound 6]
fold lower affinity against D2 as compared to loxapine [1]: ≈ 40 fold | pKi ([1]; mean [CI 95%]): 5.89 | increase in current densities ([2]; 10 mM pipette Na+): more pronounced | current densities compared to baseline ([2]; Na+-free pipette solution): increased the current densities compared to baseline | head shaking [3]: significantly ameliorated | scratching [3]: significantly ameliorated

— publication PMC11022729 (Advanced Science, 2024)
